Measurements from article PMC11589570, “Critical assessment of LC3/GABARAP ligands used for degrader development and ligandability of LC3/GABARAP binding pockets” (Nature Communications, 2024).
pKi: −log10 of the molar value. Values joined by “and” are separate entries in the source; they are usually repeats but may differ in a detail not shown here. Equal values may be shown once.

Experiments:
[1] = test system: RPE1 cells; test: Cell growth assay (IncuCyte confluence over 72 h); type: cell-based
Outline: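 Phase confluence (% area covered by cells) imaged every 2 h for 72 h after compound addition; cells in DMEM/10% FBS, seeded 24 h before treatment. Controls were 0.1% DMSO, 250 nM Torin1 and 200 ng/mL Bafilomycin (final). Each point averages three wells.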

[2] = target: GABARAP (Homo sapiens, UniProt O95166); test: FP assay with Cy5-labelled p62 LIR tracer (protein titration and tracer displacement); type: binding; details: for compound titration GABARAP (displacement curve, FP signal): two replicate columns per compound
Chain of GABARAP (O95166 1-116): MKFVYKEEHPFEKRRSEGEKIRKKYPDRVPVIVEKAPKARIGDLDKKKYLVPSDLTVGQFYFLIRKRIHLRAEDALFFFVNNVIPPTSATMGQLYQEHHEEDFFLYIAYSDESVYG

Q: CO[C@@H]1[C@@H](OC(N)=O)[C@@H](O)[C@H](Oc2ccc3c(O)c(NC(=O)c4ccc(O)c(CC=C(C)C)c4)c(=O)oc3c2C)OC1(C)C [compound 12, Novobiocin] was tested. Which RPE1 cell growth ([1]; 100 nM, 0 h) did it give?
A: Its RPE1 cell growth is 25 and 15.

Q: And the RPE1 cell growth ([1]; 100 nM, 2 h)?
A: The RPE1 cell growth was 26 and 15 and 17.

Q: What about the RPE1 cell growth ([1]; 100 nM, 4 h) of the same compound?
A: Its RPE1 cell growth is 29 and 17 and 18.

Q: What about the RPE1 cell growth ([1]; 100 nM, 6 h) of the same compound?
A: Its RPE1 cell growth is 30 and 18.

Q: What about the RPE1 cell growth ([1]; 100 nM, 8 h) of the same compound?
A: Its RPE1 cell growth is 33 and 18 and 20.

Q: What about the RPE1 cell growth ([1]; 100 nM, 10 h) of the same compound?
A: The RPE1 cell growth was 36 and 19 and 21.

Q: And the RPE1 cell growth ([1]; 500 nM, 0 h)?
A: Its RPE1 cell growth is 27 and 16 and 18.

Q: What about the RPE1 cell growth ([1]; 500 nM, 2 h) of the same compound?
A: Its RPE1 cell growth is 32 and 16 and 20.

Q: And the RPE1 cell growth ([1]; 500 nM, 4 h)?
A: Its RPE1 cell growth is 32 and 18 and 22.

Q: What about the RPE1 cell growth ([1]; 500 nM, 6 h) of the same compound?
A: Its RPE1 cell growth is 35 and 18 and 22.

Q: And the RPE1 cell growth ([1]; 500 nM, 8 h)?
A: Its RPE1 cell growth is 38 and 20 and 23.

Q: What about the RPE1 cell growth ([1]; 500 nM, 10 h) of the same compound?
A: Its RPE1 cell growth is 39 and 21.

Q: And the RPE1 cell growth ([1]; 1 uM, 0 h)?
A: Its RPE1 cell growth is 18 and 23 and 20.

Q: And the RPE1 cell growth ([1]; 1 uM, 2 h)?
A: Its RPE1 cell growth is 20 and 26 and 21.

Q: And the RPE1 cell growth ([1]; 1 uM, 4 h)?
A: Its RPE1 cell growth is 22 and 28 and 21.

Q: And the RPE1 cell growth ([1]; 1 uM, 6 h)?
A: Its RPE1 cell growth is 23 and 32.

Q: And the RPE1 cell growth ([1]; 1 uM, 8 h)?
A: Its RPE1 cell growth is 26 and 35 and 25.

Q: And the RPE1 cell growth ([1]; 1 uM, 10 h)?
A: The RPE1 cell growth was 27.

Q: What about the RPE1 cell growth ([1]; 3 uM, 0 h) of the same compound?
A: Its RPE1 cell growth is 27 and 19 and 22.

Q: What about the RPE1 cell growth ([1]; 3 uM, 2 h) of the same compound?
A: Its RPE1 cell growth is 31 and 19 and 24.

Q: What about the RPE1 cell growth ([1]; 3 uM, 4 h) of the same compound?
A: The RPE1 cell growth was 33 and 20 and 27.

Q: What about the RPE1 cell growth ([1]; 3 uM, 6 h) of the same compound?
A: The RPE1 cell growth was 37 and 22 and 28.

Q: What about the RPE1 cell growth ([1]; 3 uM, 8 h) of the same compound?
A: Its RPE1 cell growth is 41 and 24 and 30.

Q: What about the RPE1 cell growth ([1]; 3 uM, 10 h) of the same compound?
A: The RPE1 cell growth was 40 and 26 and 31.

Q: And the RPE1 cell growth ([1]; 5 uM, 0 h)?
A: Its RPE1 cell growth is 24 and 20.

Q: What about the RPE1 cell growth ([1]; 5 uM, 2 h) of the same compound?
A: The RPE1 cell growth was 28 and 22 and 24.

Q: And the RPE1 cell growth ([1]; 5 uM, 4 h)?
A: The RPE1 cell growth was 31 and 22 and 26.

Q: And the RPE1 cell growth ([1]; 5 uM, 6 h)?
A: The RPE1 cell growth was 34 and 23 and 27.

Q: And the RPE1 cell growth ([1]; 5 uM, 8 h)?
A: The RPE1 cell growth was 36 and 26 and 28.

Q: What about the RPE1 cell growth ([1]; 5 uM, 10 h) of the same compound?
A: Its RPE1 cell growth is 35 and 26 and 30.

Q: What about the RPE1 cell growth ([1]; 10 uM, 0 h) of the same compound?
A: Its RPE1 cell growth is 22 and 24 and 16.

Q: What about the RPE1 cell growth ([1]; 10 uM, 2 h) of the same compound?
A: Its RPE1 cell growth is 24 and 19.

Q: And the RPE1 cell growth ([1]; 10 uM, 4 h)?
A: Its RPE1 cell growth is 26 and 24 and 20.

Q: And the RPE1 cell growth ([1]; 10 uM, 6 h)?
A: The RPE1 cell growth was 29 and 25 and 23.

Q: What about the RPE1 cell growth ([1]; 10 uM, 8 h) of the same compound?
A: The RPE1 cell growth was 32 and 28 and 23.

Q: What about the RPE1 cell growth ([1]; 10 uM, 10 h) of the same compound?
A: The RPE1 cell growth was 32 and 28 and 26.

Q: And the pKi ([2]; FP, p62 LIR-based tracer, GABARAP)?
A: The pKi was 4.24.

Q: And the “normalized FP signal, p62 LIR tracer displacement” value (“normalized FP signal” for short) ([2]; GABARAP, log10 concentration [M] -3.82391)?
A: The value was 49.3103 and 44.4828.

Q: And the “normalized FP signal” value ([2]; GABARAP, log10 concentration [M] -4.1549)?
A: The value was 63.6207 and 63.4483.

Q: What about the “normalized FP signal” value ([2]; GABARAP, log10 concentration [M] -4.60206) of the same compound?
A: Its value is 76.2069 and 82.069.

Q: And the “normalized FP signal” value ([2]; GABARAP, log10 concentration [M] -5)?
A: The value was 86.7241 and 89.3103.

Q: What about the “normalized FP signal” value ([2]; GABARAP, log10 concentration [M] -5.30103) of the same compound?
A: Its value is 94.1379 and 92.069.

Q: And the “normalized FP signal” value ([2]; GABARAP, log10 concentration [M] -5.69897)?
A: The value was 87.069 and 88.2759.

Q: What about the “normalized FP signal” value ([2]; GABARAP, log10 concentration [M] -6.22185) of the same compound?
A: The value was 93.1034 and 95.6897.

Q: What about the “normalized FP signal” value ([2]; GABARAP, log10 concentration [M] -6.69897) of the same compound?
A: The value was 96.7241 and 93.1034.

Q: What about the “normalized FP signal” value ([2]; GABARAP, log10 concentration [M] -7.30103) of the same compound?
A: The value was 97.069 and 95.6897.

Q: And the “normalized FP signal” value ([2]; GABARAP, log10 concentration [M] -7.79588)?
A: Its value is 90.8621 and 89.1379.

Q: What about the “normalized FP signal” value ([2]; GABARAP, log10 concentration [M] -8.08092) of the same compound?
A: Its value is 86.7241 and 92.2414.

Q: And the “compound titration GABARAP (displacement curve, FP signal)” value (shortened to “compound titration GABARAP”) ([2]; log10 concentration [M] -3.82391)?
A: Its value is 49.3103 and 44.4828.

Q: And the “compound titration GABARAP” value ([2]; log10 concentration [M] -4.1549)?
A: The value was 63.6207 and 63.4483.

Q: What about the “compound titration GABARAP” value ([2]; log10 concentration [M] -4.60206) of the same compound?
A: Its value is 76.2069 and 82.069.

Q: What about the “compound titration GABARAP” value ([2]; log10 concentration [M] -5) of the same compound?
A: Its value is 86.7241 and 89.3103.

Q: What about the “compound titration GABARAP” value ([2]; log10 concentration [M] -5.30103) of the same compound?
A: The value was 94.1379 and 92.069.

Q: And the “compound titration GABARAP” value ([2]; log10 concentration [M] -5.69897)?
A: Its value is 87.069 and 88.2759.

Q: What about the “compound titration GABARAP” value ([2]; log10 concentration [M] -6.22185) of the same compound?
A: The value was 93.1034 and 95.6897.

Q: What about the “compound titration GABARAP” value ([2]; log10 concentration [M] -6.69897) of the same compound?
A: The value was 96.7241 and 93.1034.

Q: And the “compound titration GABARAP” value ([2]; log10 concentration [M] -7.30103)?
A: The value was 97.069 and 95.6897.

Q: What about the “compound titration GABARAP” value ([2]; log10 concentration [M] -7.79588) of the same compound?
A: Its value is 90.8621 and 89.1379.
